This note sets out measurements from US20230102554A1 (GB002, INC., priority 2019, published 2023).

In test [1] the target is T1, Human PDGFRα, cytoplasmic domain (GST-PDGFRα) (Homo sapiens, UniProt P16234).
T1 construct: made in house
Nature of the test: Human PDGFRα biochemical inhibition assay (off-chip Mobility Shift Assay).

Test [2] has as its target T2, Human PDGFRβ, cytoplasmic domain (GST-PDGFRβ) (Homo sapiens, UniProt P09619).
T2 construct: made in house
Put plainly: Human PDGFRβ biochemical inhibition assay (off-chip Mobility Shift Assay). Summed up: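 GST-tagged cytoplasmic domain (aa 557-1106) from baculovirus was incubated 1 h at room temperature with compound, CSKtide, ATP at Km and Mg²⁺ in HEPES buffer, pH 7.5. Phosphorylated and unphosphorylated peptide were separated by off-chip mobility shift, and the product ratio P/(P+S) gave percent inhibition.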

T1 sequence (P16234 550-1089 T674I): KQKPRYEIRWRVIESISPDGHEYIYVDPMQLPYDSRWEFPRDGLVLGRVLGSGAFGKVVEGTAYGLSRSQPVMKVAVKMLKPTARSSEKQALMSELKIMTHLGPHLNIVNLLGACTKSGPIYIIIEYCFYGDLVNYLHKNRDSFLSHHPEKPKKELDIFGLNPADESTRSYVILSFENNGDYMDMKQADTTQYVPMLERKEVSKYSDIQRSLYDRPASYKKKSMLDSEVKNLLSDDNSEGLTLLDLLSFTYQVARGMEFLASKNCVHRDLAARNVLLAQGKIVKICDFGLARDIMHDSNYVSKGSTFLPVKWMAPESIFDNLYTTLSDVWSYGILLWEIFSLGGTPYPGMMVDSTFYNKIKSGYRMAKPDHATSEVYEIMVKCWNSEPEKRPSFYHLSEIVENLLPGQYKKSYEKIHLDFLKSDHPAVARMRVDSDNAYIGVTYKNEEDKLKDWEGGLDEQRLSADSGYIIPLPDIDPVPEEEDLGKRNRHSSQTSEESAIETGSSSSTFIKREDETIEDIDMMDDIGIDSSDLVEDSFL
T2 sequence (P09619 with tags, fused parts or gaps): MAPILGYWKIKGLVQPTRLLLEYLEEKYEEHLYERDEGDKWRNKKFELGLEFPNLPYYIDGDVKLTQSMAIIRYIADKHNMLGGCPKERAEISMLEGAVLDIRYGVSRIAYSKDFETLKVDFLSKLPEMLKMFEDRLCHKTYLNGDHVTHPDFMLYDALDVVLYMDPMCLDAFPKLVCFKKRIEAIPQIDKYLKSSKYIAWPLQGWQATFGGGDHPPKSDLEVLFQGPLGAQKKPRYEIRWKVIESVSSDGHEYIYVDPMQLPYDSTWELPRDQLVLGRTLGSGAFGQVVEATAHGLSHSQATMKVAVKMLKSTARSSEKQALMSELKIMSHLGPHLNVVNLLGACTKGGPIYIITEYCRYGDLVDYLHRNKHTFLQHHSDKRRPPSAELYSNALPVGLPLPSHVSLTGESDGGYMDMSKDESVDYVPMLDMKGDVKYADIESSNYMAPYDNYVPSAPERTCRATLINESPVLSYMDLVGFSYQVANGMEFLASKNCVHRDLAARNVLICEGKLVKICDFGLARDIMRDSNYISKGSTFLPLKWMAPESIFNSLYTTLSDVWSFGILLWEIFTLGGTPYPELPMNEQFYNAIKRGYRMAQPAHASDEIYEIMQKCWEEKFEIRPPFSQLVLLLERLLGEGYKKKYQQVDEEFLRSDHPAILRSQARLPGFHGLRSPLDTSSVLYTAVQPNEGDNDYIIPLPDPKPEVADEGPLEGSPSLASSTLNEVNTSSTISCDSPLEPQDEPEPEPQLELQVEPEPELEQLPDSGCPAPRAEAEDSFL

On to `CCn1cc2ncc(N[C@@H](C)c3cccc(NC(=O)c4ccc(CN(C)C)cc4)c3)nc2n1` [Compound 373, (S)-4-((dimethylamino)methyl)-N-(3-(1-((2-ethyl-2H-pyrazolo[3,4-b]pyrazin-6-yl)amino)ethyl)phenyl)benzamide], for which the figures for the IC50 in test [1] and in test [2] were below 300 nM and at least 1000 nM, respectively.
Regarding `CNc1ccc(C(=O)Nc2cccc([C@H](C)Nc3cnc4cnn(C)c4n3)c2)cn1` [Compound 120, (S)-N-(3-(1-((1-methyl-1H-pyrazolo[3,4-b]pyrazin-6-yl)amino)ethyl)phenyl)-6-(methylamino)nicotinamide], the 50% inhibitory concentration (IC50) in test [1] was below 300 nM; in test [2], 300 to 1000 nM.
For `C=Cc1ncc(C(=O)Nc2cccc([C@H](C)Nc3cnc4cnn(C)c4n3)c2)cc1C` [Compound 245, (S)-5-methyl-N-(3-(1-((1-methyl-1H-pyrazolo[3,4-b]pyrazin-6-yl)amino)ethyl)phenyl)-6-vinylnicotinamide], in that order: below 300 nM and below 300 nM.
The like results for `CC(C)n1ccc(C(=O)Nc2cccc([C@H](C)Nc3cnc4cnn(C)c4n3)c2)n1` [Compound 156, (S)-1-isopropyl-N-(3-(1-((1-methyl-1H-pyrazolo[3,4-b]pyrazin-6-yl)amino)ethyl)phenyl)-1H-pyrazole-3-carboxamide] were, in that order, below 300 nM and below 300 nM.
`CNc1ncc(C(=O)Nc2cccc([C@H](C)Nc3cnc4[nH]cc(-c5cnn(C)c5)c4n3)c2)cc1C` [Compound 587, (S)-5-methyl-N-(3-(1-((7-(1-methyl-1H-pyrazol-4-yl)-5H-pyrrolo[2,3-b]pyrazin-2-yl)amino)ethyl)phenyl)-6-(methylamino)nicotinamide]: the concentration for half-maximal inhibition (IC50) in test [1] and in test [2] was below 300 nM throughout.
Consider `CCn1cc2ncc(N[C@@H](C)c3cccc(NC(=O)c4ccc5c(c4)OC(F)(F)O5)c3)nc2n1` [Compound 442, (S)-N-(3-(1-((2-ethyl-2H-pyrazolo[3,4-b]pyrazin-6-yl)amino)ethyl)phenyl)-2,2-difluorobenzo[d][1,3]dioxole-5-carboxamide], for which the IC50 in test [1] and in test [2] was below 300 nM each time.
As to `CCn1cc2ncc(N[C@@H](C)c3cc(NC(=O)Cc4cc(F)ccc4F)ccc3C)nc2n1` [Compound 702, (S)-2-(2,5-difluorophenyl)-N-(3-(1-((2-ethyl-2H-pyrazolo[3,4-b]pyrazin-6-yl)amino)ethyl)-4-methylphenyl)acetamide], the IC50 in test [1] and in test [2] was below 300 nM throughout.
In the case of `COc1ncc(C(=O)Nc2cccc([C@H](C)Nc3cnc4cnn(C)c4n3)c2)cc1C` [Compound 128, (S)-6-methoxy-5-methyl-N-(3-(1-((1-methyl-1H-pyrazolo[3,4-b]pyrazin-6-yl)amino)ethyl)phenyl)nicotinamide], the IC50 in test [1] and in test [2] was below 300 nM in each case.
Turning to `CCn1cc2ncc(N[C@@H](C)c3cccc(NC(=O)c4ccc(CN5[C@@H]6CC[C@H]5CN(C)C6)c(C)c4)c3)nc2n1` [Compound 475, N-(3-((S)-1-((2-ethyl-2H-pyrazolo[3,4-b]pyrazin-6-yl)amino)ethyl)phenyl)-3-methyl-4-(((1R,5S)-3-methyl-3,8-diazabicyclo[3.2.1]octan-8-yl)methyl)benzamide], the IC50 in test [1] and in test [2] was below 300 nM each time.
For the compound `CSc1ccc(C(=O)Nc2cccc([C@H](C)Nc3cnc4cnn(C)c4n3)c2)cc1` [Compound 219, (S)-N-(3-(1-((1-methyl-1H-pyrazolo[3,4-b]pyrazin-6-yl)amino)ethyl)phenyl)-4-(methylthio)benzamide], the IC50 in test [1] and in test [2] was below 300 nM each time.
Consider `CCn1cc2ncc(N[C@@H](C)c3cccc(NC(=O)Cc4cc(F)cc(CN5CCN(C)CC5)c4)c3)nc2n1` [Compound 646, (S)-N-(3-(1-((2-ethyl-2H-pyrazolo[3,4-b]pyrazin-6-yl)amino)ethyl)phenyl)-2-(3-fluoro-5-((4-methylpiperazin-1-yl)methyl)phenyl)acetamide], for which the half-inhibitory concentration (IC50) in test [1] is below 300 nM; in test [2], 300 to 1000 nM.
As to `Cc1cc(C(=O)Nc2cccc([C@H](C)Nc3cnc4cnn(C)c4n3)c2)ccc1O` [Compound 240, (S)-4-hydroxy-3-methyl-N-(3-(1-((1-methylH-pyrazolo[3,4-b]pyrazin-6-yl)amino)ethyl)phenyl)benzamide], the IC50 in test [1] and in test [2] was below 300 nM each time.
`CCn1cc2ncc(N[C@@H](C)c3cccc(NC(=O)c4ccc(Cl)c(F)c4)c3)nc2n1` [Compound 347, (S)-4-chloro-N-(3-(1-((2-ethyl-2H-pyrazolo[3,4-b]pyrazin-6-yl)amino)ethyl)phenyl)-3-fluorobenzamide]: the IC50 in test [1] and in test [2] was below 300 nM in each case.
For `Cc1cncc(C(=O)Nc2cccc([C@H](C)Nc3cnc4cnn(-c5ccccn5)c4n3)c2)c1` [Compound 272, (S)-5-methyl-N-(3-(1-((1-(pyridin-2-yl)-1H-pyrazolo[3,4-b]pyrazin-6-yl)amino)ethyl)phenyl)nicotinamide], the IC50 in test [1] and in test [2] was below 300 nM each time.
`CCn1cc2ncc(N[C@@H](C)c3cccc(NC(=O)c4ccc(C(=O)N5CC[C@@H](N)C5)c(C)c4)c3)nc2n1` [Compound 465, 4-((R)-3-aminopyrrolidine-1-carbonyl)-N-(3-((S)-1-((2-ethyl-2H-pyrazolo[3,4-b]pyrazin-6-yl)amino)ethyl)phenyl)-3-methylbenzamide]: the half-inhibitory concentration (IC50) in test [1] was below 300 nM; in test [2] it was at least 1000 nM.
As for `Cc1cncc(C(=O)Nc2cccc([C@H](C)Nc3cnc4cccnc4c3)c2)c1` [Compound 3, (S)—N-(3-(1-((1,5-naphthyridin-3-yl)amino)ethyl)phenyl)-5-methylnicotinamide], the results for the IC50 in test [1] and in test [2] were below 300 nM and at least 1000 nM, respectively.
As for `C[C@H](Nc1cnc2cnn(C)c2n1)c1cccc(NC(=O)Cc2cnn(C)c2)c1` [Compound 629, (S)-2-(1-methyl-1H-pyrazol-4-yl)-N-(3-(1-((1-methyl-1H-pyrazolo[3,4-b]pyrazin-6-yl)amino)ethyl)phenyl)acetamide], the values for the half-maximal inhibitory concentration (IC50) in test [1] and in test [2] were below 300 nM and at least 1000 nM, respectively.
For the compound `CCNc1ncc(C(=O)Nc2cccc([C@H](C)Nc3cnc4cn(CC)nc4n3)c2)s1` [Compound 364, (S)-N-(3-(1-((2-ethyl-2H-pyrazolo[3,4-b]pyrazin-6-yl)amino)ethyl)phenyl)-2-(ethylamino)thiazole-5-carboxamide], the IC50 in test [1] is below 300 nM; in test [2] it was 300 to 1000 nM.
On to `CCn1cc2ncc(N[C@@H](C)c3cc(NC(=O)Cc4ccccc4F)ccc3C)nc2n1` [Compound 700, (S)-N-(3-(1-((2-ethyl-2H-pyrazolo[3,4-b]pyrazin-6-yl)amino)ethyl)-4-methylphenyl)-2-(2-fluorophenyl)acetamide], for which the IC50 in test [1] and in test [2] was below 300 nM in each case.
In the case of `CCn1cc2ncc(N[C@@H](C)c3cc(NC(=O)Cc4ccc(Cl)cn4)ccc3F)nc2n1` [Compound 650, (S)-2-(5-chloropyridin-2-yl)-N-(3-(1-((2-ethyl-2H-pyrazolo[3,4-b]pyrazin-6-yl)amino)ethyl)-4-fluorophenyl)acetamide], the IC50 in test [1] is below 300 nM; in test [2] it was 300 to 1000 nM.
Consider `C[C@H](Nc1cnc2[nH]ccc2n1)c1cc(NC(=O)c2ccc(OC(F)F)nc2)ccc1F` [Compound 596, (S)-N-(3-(1-((5H-pyrrolo[2,3-b]pyrazin-2-yl)amino)ethyl)-4-fluorophenyl)-6-(difluoromethoxy)nicotinamide], for which the IC50 in test [1] and in test [2] was below 300 nM each time.
As to `CCn1cc2ncc(N[C@@H](C)c3cccc(NC(=O)c4cnc(Br)c(C)c4)c3)nc2n1` [Compound 350, (S)-6-bromo-N-(3-(1-((2-ethyl-2H-pyrazolo[3,4-b]pyrazin-6-yl)amino)ethyl)phenyl)-5-methylnicotinamide], the IC50 in test [1] and in test [2] was below 300 nM in each case.
Regarding `CCn1cc2ncc(N[C@@H](C)c3cccc(NC(=O)c4ccc(N5CCNCC5)nc4)c3)nc2n1` [Compound 397, (S)-N-(3-(1-((2-ethyl-2H-pyrazolo[3,4-b]pyrazin-6-yl)amino)ethyl)phenyl)-6-(piperazin-1-yl)nicotinamide], the half-inhibitory concentration (IC50) in test [1] was 300 to 1000 nM; in test [2], at least 1000 nM.
The like results for `CCn1cc2ncc(N[C@@H](C)c3cccc(NC(=O)c4ccc(C5CC5)s4)c3)nc2n1` [Compound 291, (S)-5-cyclopropyl-N-(3-(1-((2-ethyl-2H-pyrazolo[3,4-b]pyrazin-6-yl)amino)ethyl)phenyl)thiophene-2-carboxamide] were, in that order, below 300 nM and below 300 nM.
For `CSc1ccc(C(=O)Nc2cccc([C@H](C)Nc3cnc4cnn(C)c4n3)c2)cc1SC` [Compound 269, (S)-N-(3-(1-((1-methyl-1H-pyrazolo[3,4-b]pyrazin-6-yl)amino)ethyl)phenyl)-3,4-bis(methylthio)benzamide], in that order: below 300 nM and below 300 nM.
With `COc1ccc(-n2ccc3ncc(N[C@@H](C)c4cccc(NC(=O)c5cncc(C)c5)c4)cc32)cc1OC` [Compound 6, (S)—N-(3-(1-((1-(3,4-dimethoxyphenyl)-1H-pyrrolo[3,2-b]pyridin-6-yl)amino)ethyl)phenyl)-5-methylnicotinamide], the figures for the IC50 in test [1] and in test [2] were below 300 nM and at least 1000 nM, respectively.
With `CCn1cc2ncc(N[C@@H](C)c3cccc(NC(=O)c4cnc(NC5CCOCC5)c(C)c4)c3)nc2n1` [Compound 351, (S)-N-(3-(1-((2-ethyl-2H-pyrazolo[3,4-b]pyrazin-6-yl)amino)ethyl)phenyl)-5-methyl-6-((tetrahydro-2H-pyran-4-yl)amino)nicotinamide], the half-maximal inhibitory concentration (IC50) in test [1] is 300 to 1000 nM; in test [2] it was at least 1000 nM.
